Experimental data as given in ChEMBL document CHEMBL1201862, “PubChem BioAssay data set” (2004).
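Protocol summary: plate cells (96-well), add compound at 5 concentrations, incubate 48 h, interpolate endpoints linearly. Abbreviation: GI50, concentration required for 50% inhibition of growth.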 Activity calls are given as the source filed them. Cut-off read from the data, not from the text of the source: active = GI50 up to about 1.1 µM and inactive = higher.

How the values were obtained:
Experiment in all cases: NCI-60 cell line screen, 48 h
786-0 = test system: 786-0
A498 = test system: A498
ACHN = test system: ACHN
CCRF-CEM = test system: CCRF-CEM
COLO 205 = test system: COLO 205
HCC 2998 = test system: HCC 2998
HOP-92 = test system: HOP-92
HT-29 = test system: HT-29
K562 = test system: K562
KM-20L2 = test system: KM-20L2
M14 = test system: M14
NCI-H460 = test system: NCI-H460
SF-539 = test system: SF-539
U-251 = test system: U-251
UACC-257 = test system: UACC-257
UACC-62 = test system: UACC-62
HOP-62 = test system: HOP-62
BT-549 = test system: BT-549
NCI/ADR-RES = test system: NCI/ADR-RES
PC-3 = test system: PC-3

O=C(CCC(=O)C(C(=O)c1ccccc1)c1ccccc1)Nc1cccc(C(F)(F)F)c1 (stereo not given)
GI50 (786-0): > 100 µM (inactive) | GI50 (A498): > 100 µM (inactive) | GI50 (ACHN): > 100 µM (inactive) | GI50 (CCRF-CEM): > 100 µM (inactive) | GI50 (COLO 205): > 100 µM (inactive) | GI50 (HCC 2998): > 100 µM (inactive) | GI50 (HOP-92): > 100 µM (inactive) | GI50 (HT-29): > 100 µM (inactive) | GI50 (K562): > 100 µM (inactive) | GI50 (KM-20L2): > 100 µM (inactive) | GI50 (M14): > 100 µM (inactive) | GI50 (NCI-H460): > 100 µM (inactive) | GI50 (SF-539): > 100 µM (inactive) | GI50 (U-251): > 100 µM (inactive) | GI50 (UACC-257): > 100 µM (inactive) | GI50 (UACC-62): > 100 µM (inactive)

O=C(CC12C3C4C1C1C2C3C41CC(=O)NO)NO (stereo not given)
GI50 (786-0): 40.7 µM (inactive) | GI50 (A498): 28.8 µM (inactive) | GI50 (ACHN): > 100 µM (inactive) | GI50 (CCRF-CEM): 26.7 µM (inactive) | GI50 (COLO 205): 46.3 µM (inactive) | GI50 (HCC 2998): > 100 µM (inactive) | GI50 (HOP-62): 40.8 µM (inactive) | GI50 (HOP-92): 39.3 µM (inactive) | GI50 (HT-29): 29.4 µM (inactive) | GI50 (K562): 25.2 µM (inactive) | GI50 (KM-20L2): 38.2 µM (inactive) | GI50 (M14): 28.8 µM (inactive) | GI50 (NCI-H460): 23.4 µM (inactive) | GI50 (SF-539): 46.3 µM (inactive) | GI50 (U-251): 35.7 µM (inactive) | GI50 (UACC-257): 21.8 µM (inactive) | GI50 (UACC-62): 37.6 µM (inactive)

O=[N+]([O-])C(=C(c1ccccc1)c1ccccc1)[N+](=O)[O-]
GI50 (786-0): 14.5 µM (inactive) | GI50 (A498): 14.8 µM (inactive) | GI50 (ACHN): 12.8 µM (inactive) | GI50 (CCRF-CEM): 2.93 µM (inactive) | GI50 (COLO 205): 12.4 µM (inactive) | GI50 (HCC 2998): 11.4 µM (inactive) | GI50 (HOP-62): > 10 µM (inactive) | GI50 (HT-29): > 10 µM (inactive) | GI50 (K562): 20.5 µM (inactive) | GI50 (KM-20L2): 17.2 µM (inactive) | GI50 (M14): 11.9 µM (inactive) | GI50 (NCI-H460): 5.57 µM (inactive) | GI50 (SF-539): 13.6 µM (inactive) | GI50 (U-251): 13.6 µM (inactive) | GI50 (UACC-257): 13.1 µM (inactive) | GI50 (UACC-62): 3.79 µM (inactive)

CC(=O)Nc1ccc(OCC(O)CO)cc1 (stereo not given)
GI50 (786-0): 25.1 µM (inactive) | GI50 (A498): > 100 µM (inactive) | GI50 (ACHN): > 100 µM (inactive) | GI50 (CCRF-CEM): 48.2 µM (inactive) | GI50 (COLO 205): > 100 µM (inactive) | GI50 (HCC 2998): > 100 µM (inactive) | GI50 (HOP-62): > 100 µM (inactive) | GI50 (HOP-92): > 100 µM (inactive) | GI50 (HT-29): > 100 µM (inactive) | GI50 (K562): 16.8 µM (inactive) | GI50 (KM-20L2): > 100 µM (inactive) | GI50 (M14): > 100 µM (inactive) | GI50 (NCI-H460): > 100 µM (inactive) | GI50 (SF-539): > 100 µM (inactive) | GI50 (U-251): 56.5 µM (inactive) | GI50 (UACC-257): > 100 µM (inactive) | GI50 (UACC-62): > 100 µM (inactive)

O=C(CCN(CCO)CCO)Nc1ccc2c(c1)C(=O)c1ccc(NC(=O)CCN(CCO)CCO)cc1C2=O
GI50 (786-0): 4.62 µM (inactive) | GI50 (A498): 9.86 µM (inactive) | GI50 (ACHN): 9.29 µM (inactive) | GI50 (CCRF-CEM): 6.52 µM (inactive) | GI50 (COLO 205): 10.7 µM (inactive) | GI50 (HCC 2998): 1.51 µM (inactive) | GI50 (HOP-62): 29.4 µM (inactive) | GI50 (HOP-92): 26.7 µM (inactive) | GI50 (HT-29): 28.1 µM (inactive) | GI50 (K562): 18.5 µM (inactive) | GI50 (KM-20L2): 48.4 µM (inactive) | GI50 (M14): 12.4 µM (inactive) | GI50 (NCI-H460): 10.8 µM (inactive) | GI50 (SF-539): 4.81 µM (inactive) | GI50 (U-251): 22.3 µM (inactive) | GI50 (UACC-257): 24.1 µM (inactive) | GI50 (UACC-62): 3.44 µM (inactive)

CCCCCCCCCCCCCCCCCCNC(=O)OCC(CNS(=O)(=O)CCC[n+]1cccc2ccccc21)COC (stereo not given)
GI50 (786-0): 3.45 µM (inactive) | GI50 (A498): 10.9 µM (inactive) | GI50 (ACHN): 6.75 µM (inactive) | GI50 (BT-549): 2.18 µM (inactive) | GI50 (CCRF-CEM): 1.06 µM (active) | GI50 (COLO 205): 0.435 µM (active) | GI50 (HCC 2998): 1.34 µM (inactive) | GI50 (HOP-62): 3.76 µM (inactive) | GI50 (HOP-92): 0.838 µM (active) | GI50 (HT-29): 0.565 µM (active) | GI50 (K562): 3.55 µM (inactive) | GI50 (KM-20L2): 0.776 µM (active) | GI50 (M14): 3.7 µM (inactive) | GI50 (NCI-H460): 1.34 µM (inactive) | GI50 (NCI/ADR-RES): 18.5 µM (inactive) | GI50 (PC-3): 1.76 µM (inactive) | GI50 (SF-539): 2.01 µM (inactive) | GI50 (U-251): 0.596 µM (active) | GI50 (UACC-257): 2.8 µM (inactive) | GI50 (UACC-62): 1.96 µM (inactive)

CN/N=C(\C)CC(=O)Nc1cccc(Cl)c1C
GI50 (786-0): > 100 µM (inactive) | GI50 (A498): > 100 µM (inactive) | GI50 (ACHN): > 100 µM (inactive) | GI50 (CCRF-CEM): 96.6 µM (inactive) | GI50 (COLO 205): > 100 µM (inactive) | GI50 (HCC 2998): > 100 µM (inactive) | GI50 (HOP-62): > 100 µM (inactive) | GI50 (HOP-92): > 100 µM (inactive) | GI50 (HT-29): > 100 µM (inactive) | GI50 (K562): > 100 µM (inactive) | GI50 (KM-20L2): > 100 µM (inactive) | GI50 (M14): > 100 µM (inactive) | GI50 (NCI-H460): > 100 µM (inactive) | GI50 (SF-539): > 100 µM (inactive) | GI50 (U-251): > 100 µM (inactive) | GI50 (UACC-257): > 100 µM (inactive) | GI50 (UACC-62): > 100 µM (inactive)
